Experimental data: patent US10448639B2, “Fungicidal pyrazoles” (FMC CORPORATION, priority 2009, dated 2019)

Columns and labels:
[1] = system: Puccinia recondita f. sp. tritici; experiment: Test I: wheat leaf rust, preventive spray on wheat seedlings, visual disease rating; details: wheat leaf rust, 100 = 100% disease control
Text: (§1) General protocol for preparing test suspensions for Tests A-J: the test compounds were first dissolved in acetone in an amount equal to 3% of the final volume and then suspended at the desired concentration (in ppm) in acetone and purified water (50/50 mix by volume) containing 250 ppm of the surfactant Trem® 014 (polyhydric alcohol esters). The resulting test suspensions were then used in Tests A-J. Spraying a 200 ppm test suspension to the point of run-off on the test plants was the equivalent of a rate of 500 g/ha. Unless otherwise indicated, the rating values indicate a 200 ppm test suspension was used. (An asterisk “*” next to the rating value indicates a 40 ppm test suspension was used.)
The test suspension was sprayed to the point of run-off on wheat seedlings. The following day the seedlings were inoculated with a spore suspension of Puccinia recondita f. sp. tritici (the causal agent of wheat leaf rust) and incubated in a saturated atmosphere at 20° C. for 24 h, and then moved to a growth chamber at 20° C. for 7 days, after which time visual disease ratings were made
A dash (-) indicates no test results.

[2] = system: Botrytis cinerea; experiment: Test B: tomato Botrytis, preventive spray on tomato seedlings, visual disease rating; details: tomato Botrytis, 100 = 100% disease control
[3] = system: Septoria tritici; experiment: Test G: wheat leaf blotch, preventive spray on wheat seedlings, visual disease rating; details: wheat leaf blotch, 100 = 100% disease control
[4] = system: Alternaria solani; experiment: Test C: tomato early blight, preventive spray on tomato seedlings, visual disease rating; details: tomato early blight, 100 = 100% disease control
Text: as §1
The test suspension was sprayed to the point of run-off on tomato seedlings. The following day the seedlings were inoculated with a spore suspension of Alternaria solani (the causal agent of tomato early blight) and incubated in a saturated atmosphere at 27° C. for 48 h, and then moved to a growth chamber at 20° C. for 5 days, after which time visual disease ratings were made.

[5] = system: Erysiphe graminis f sp. tritici; experiment: Test J: wheat powdery mildew, preventive spray on wheat seedlings, visual disease rating; details: wheat powdery mildew, 100 = 100% disease control
[6] = system: Septoria nodorum; experiment: Test F: Septoria glume blotch, preventive spray on wheat seedlings, visual disease rating; details: 100 = 100% disease control
[7] = system: Puccinia recondita f. sp. tritici; experiment: Test H: wheat leaf rust, curative spray on inoculated wheat seedlings, visual disease rating; details: wheat leaf rust, 100 = 100% disease control
[8] = preventive spray, 0 = no control
[9] = Septoria glume blotch on wheat, preventive spray, 0 = no control
[10] = preventive, 0 = no control relative to controls
[11] = 0 = no control relative to controls
[12] = Septoria glume blotch, 0 = no control relative to controls
[13] = curative, 0 = no control relative to controls

Structure (SMILES) | Test I rating (% disease control) [1, 8] | Test B rating (% disease control) [2, 8] | Test G rating (% disease control) [3, 8] | Test C rating (% disease control) [4, 8] | Test J rating (% disease control) [5, 8] | Test F rating (% disease control) [6, 9] | Test H rating (% disease control) ([7]; curative spray, 0 = no control) | Test I rating (% disease control) [1, 10] | Test B rating (% disease control) [2, 11] | Test G rating (% disease control) [3, 11] | Test C rating (% disease control) [4, 11] | Test J rating (% disease control) [5, 11] | Test F rating (% disease control) [6, 12] | Test H rating (% disease control) [7, 13]
Cc1cc(Oc2c(-c3c(F)cc(F)cc3F)c(C)nn2C)ccc1[N+](=O)[O-] [compound 135] | 74% | 0% | 97% | 0% | 95% | 0% | 16% |  |  |  |  |  |  | 
Cc1nn(C)c(Nc2cccc(F)c2)c1-c1c(F)cc(C#N)cc1F [compound 136] | 99% | 99% | 99% | 71% | 100% | 86% | 0% |  |  |  |  |  |  | 
Cc1nn(C)c(Nc2cc(F)ccc2F)c1-c1c(F)cc(C#N)cc1F [compound 137] | 100% | 96% | 99% | 97% | 100% | 78% | 8% |  |  |  |  |  |  | 
Cc1nn(C)c(Nc2cc(F)c(F)cc2F)c1-c1c(F)cc(C#N)cc1F [compound 138] | 100% | 99% | 99% | 96% | 98% | 84% | 38% |  |  |  |  |  |  | 
COc1cc(F)c(-c2c(C)nn(C)c2Oc2c(F)cc(C#N)cc2F)c(F)c1 [compound 140] | 96% | 99% | 99% | 94% | 97% | 87% | 0% |  |  |  |  |  |  | 
CCOc1cc(F)c(-c2c(C)nn(C)c2Nc2ccc(F)cc2F)c(F)c1 [compound 141] | 99% | 99% | 100% | 99% | 100% | 98% | 0% |  |  |  |  |  |  | 
Cc1nn(C)c(Nc2cc(Cl)ccc2F)c1-c1c(F)cc(C#N)cc1F [compound 142] | 95% | 33% | 99% | 13% | 90% | 20% | 0% |  |  |  |  |  |  | 
Cc1nn(C)c(Nc2ccc(Cl)cc2F)c1-c1c(F)cc(C#N)cc1F [compound 143] | 100% | 99% | 100% | 99% | 100% | 100% | 63% |  |  |  |  |  |  | 
Cc1nn(C)c(Nc2ccc(F)c(Cl)c2)c1-c1c(F)cc(C#N)cc1F [compound 144] | 98% | 99% | 99% | 9% | 91% | 40% | 0% |  |  |  |  |  |  | 
Cc1nn(C)c(Nc2cccc(F)c2F)c1-c1c(F)cc(C#N)cc1F [compound 145] | 100% | 96% | 100% | 98% | 100% | 100% | 88% |  |  |  |  |  |  | 
Cc1nn(C)c(Nc2cc(Cl)ccc2Cl)c1-c1c(F)cc(C#N)cc1F [compound 146] | 97% | 99% | 99% | 0% | 56% | 0% | 0% |  |  |  |  |  |  | 
Cc1nn(C)c(Nc2cccc(Cl)c2Cl)c1-c1c(F)cc(C#N)cc1F [compound 147] | 98% | 99% | 100% | 88% | 92% | 100% | 0% |  |  |  |  |  |  | 
Cc1nn(C)c(Oc2ccc(F)cc2C#N)c1-c1ccc(F)cc1Cl [compound 149] |  |  |  |  |  |  |  | 100% | 100% | 100% | 98% | 100% | 100% | 99%
Cc1nn(C)c(Oc2cc(C#N)c(C#N)cc2Cl)c1-c1ccc(F)cc1Cl [compound 150] |  |  |  |  |  |  |  | 74% | 19% | 7% | 0% | 50% | 60% | 0%
COc1cc(Oc2c(-c3c(F)cc(F)cc3F)c(C)nn2C)ccc1[N+](=O)[O-] [compound 151] |  |  |  |  |  |  |  | 54% | 99% | 96% | 9% | 64% | 0% | 0%
COc1cc(F)c(-c2c(C)nn(C)c2Oc2ccc(Cl)c(F)c2)c(F)c1 [compound 152] |  |  |  |  |  |  |  | 97% | 100% | 99% | 82% | 99% | 87% | 9%
COc1cc(F)c(-c2c(C)nn(C)c2Oc2ccc(Br)c(F)c2)c(F)c1 [compound 153] |  |  |  |  |  |  |  | 96% | 100% | 100% | 0% | 98% | 73% | 0%
Cc1nn(C)c(Nc2ncc(F)cc2F)c1-c1ccc(F)cc1Cl [compound 154] |  |  |  |  |  |  |  | 100% | 99% | 100% | 99% | 100% | 97% | 41%
COc1ccc(-c2c(C)nn(C)c2Oc2c(F)cc(C#N)cc2F)c(Cl)c1 [compound 155] |  |  |  |  |  |  |  | 100% | 100% | 100% | 99% | 99% | 100% | 92%
Cc1nn(C)c(Oc2ccc([N+](=O)[O-])c(C#N)c2)c1-c1c(F)cc(F)cc1F [compound 156] |  |  |  |  |  |  |  | 41% | 94% | 73% | 0% | 47% | 0% | 0%
Cc1cc(Oc2c(-c3c(F)cc(F)cc3F)c(C)nn2C)ccc1Cl [compound 157] |  |  |  |  |  |  |  | 54% | 0% | 0% | 0% | 73% | 0% | 0%
CCN(c1c(F)cc(OC)cc1F)c1c(-c2ccc(F)cc2Cl)c(C)nn1C [compound 158] |  |  |  |  |  |  |  | 99% | 100% | 99% | 0% | 98% | 0% | 18%
C=CCN(c1c(F)cc(OC)cc1F)c1c(-c2ccc(F)cc2Cl)c(C)nn1C [compound 159] |  |  |  |  |  |  |  | 99% | 99% | 100% | 0% | 100% | 0% | 74%
COc1ccc(-c2c(C)nn(C)c2Nc2ccc(F)cc2F)c(Cl)c1 [compound 160] |  |  |  |  |  |  |  | 100% | 98% | 99% | 99% | 100% | 0% | 8%
